The text below walks through data of patent publication US9499550B2 (BRISTOL-MYERS SQUIBB COMPANY, priority 2012, dated 2016).

As usually defined, the EC50 is the concentration needed to bring the measured effect to its halfway point.

Assay [1] deals with HCV genotype 1a (H77 strain) replicon in HUH-7 cells. The experiment in a line: HCV replicon luciferase reporter assay, genotype 1a. In kind it is cell-based. Particulars: Hepatitis C virus, Huh-7, 72 h, HCV genotype 1a replicon luciferase, 3 days incubation, read-out: LE_1a (EC50, range). An outline of the steps:
(§1)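 Replicon inhibition for both genotypes was measured as Renilla luciferase signal (EnduRen, 7.5 μM final, 2 h) after 3-day, 37° C exposure of replicon-bearing HUH-7 cells in 4% FCS DMEM, 0.5% DMSO. The 1b construct carries S1179I; the 1a H77 construct carries P1496L and S2204I. Twenty-point, 3-fold dilutions were fitted four-parametrically for EC50, and CC50 was taken from multiplexed Cell Titer-Blue.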
(In general: In antiviral work, replicon cells carry a viral genome segment that copies itself.)

Assay [2] has as its system HCV genotype 1b (Con1) replicon in HUH-7 cells. The experiment in a line: HCV replicon luciferase reporter assay, genotype 1b. To be noted: Hepatitis C virus, Huh-7, 72 h, HCV genotype 1b replicon luciferase, 3 days incubation, read-out: LE_1b (EC50, range). In kind it is cell-based. An outline of the steps:
as §1

Like-named read-outs stand apart in the source and are kept apart here. Where only a bound is given, the exact number is not on record here.

In the case of `COc1cc2c(OC)cnc(O[C@@H]3C[C@H]4C(=O)N[C@]5(C(=O)NS(=O)(=O)C6(C)CC6)C[C@H]5/C=C\CC[C@@H](C)C[C@@H](C)[C@H](NC(=O)OC(C)(C)C)C(=O)N4C3)c2cc1F` [Compound 4070, tert-butyl (2R,6S,7R,9R,13aS,14aR,16aS,Z)-2-(7-fluoro-4,6-dimethoxyisoquinolin-1-yloxy)-7,9-dimethyl-14a-(1-methylcyclopropylsulfonylcarbamoyl)-5,16-dioxo-1,2,3,5,6,7,8,9,10,11,13a,14,14a,15,16,16a-hexadecahydrocyclopropa[e]pyrrolo[1,2-a][1,4]diazacyclopentadecin-6-ylcarbamate], the concentration for a half-maximal effect (EC50) in assay [1] and in assay [2] was under 5.46 nM in each case.

Turning to `C[C@@H]1CC/C=C\[C@@H]2C[C@@]2(C(=O)NS(=O)(=O)C2CC2)NC(=O)[C@@H]2C[C@@H](Oc3nccc4ccc(F)cc34)CN2C(=O)[C@@H](NC(=O)OC(C)(C)C)[C@H](C)C1` [Compound 4071, tert-butyl (2R,6S,7R,9R,13aS,14aR,16aS,Z)-14a-(cyclopropylsulfonylcarbamoyl)-2-(7-fluoroisoquinolin-1-yloxy)-7,9-dimethyl-5,16-dioxo-1,2,3,5,6,7,8,9,10,11,13a,14,14a,15,16,16a-hexadecahydrocyclopropa[e]pyrrolo[1,2-a][1,4]diazacyclopentadecin-6-ylcarbamate], the EC50 in assay [1] and in assay [2] was under 5.46 nM in each case.

On to `C[C@@H]1CC/C=C\[C@@H]2C[C@@]2(C(=O)NS(=O)(=O)C2CC2)NC(=O)[C@@H]2C[C@@H](Oc3nccc4ccc(F)cc34)CN2C(=O)[C@@H](NC(=O)OC2(C)CC2)[C@H](C)C1` [Compound 4073, 1-methylcyclopropyl (2R,6S,7R,9R,13aS,14aR,16aS,Z)-14a-(cyclopropylsulfonylcarbamoyl)-2-(7-fluoroisoquinolin-1-yloxy)-7,9-dimethyl-5,16-dioxo-1,2,3,5,6,7,8,9,10,11,13a,14,14a,15,16,16a-hexadecahydrocyclopropa[e]pyrrolo[1,2-a][1,4]diazacyclopentadecin-6-ylcarbamate], for which the EC50 in assay [1] and in assay [2] was under 5.46 nM throughout.

For the compound `COc1cc2c(OC)cnc(O[C@@H]3C[C@H]4C(=O)N[C@]5(C(=O)NS(=O)(=O)C6CC6)C[C@H]5/C=C\CC[C@@H](C)C[C@@H](C)[C@H](NC(=O)OC(C)(C)C)C(=O)N4C3)c2cc1F` [Compound 4074, tert-butyl (2R,6S,7R,9R,13aS,14aR,16aS,Z)-14a-(cyclopropylsulfonylcarbamoyl)-2-(7-fluoro-4,6-dimethoxyisoquinolin-1-yloxy)-7,9-dimethyl-5,16-dioxo-1,2,3,5,6,7,8,9,10,11,13a,14,14a,15,16,16a-hexadecahydrocyclopropa[e]pyrrolo[1,2-a][1,4]diazacyclopentadecin-6-ylcarbamate], the concentration giving a half-maximal response (EC50) in assay [1] and in assay [2] was under 5.46 nM in each case.

For the compound `CCOc1cnc(O[C@@H]2C[C@H]3C(=O)N[C@]4(C(=O)NS(=O)(=O)C5(C)CC5)C[C@H]4/C=C\CC[C@@H](C)C[C@@H](C)[C@H](NC(=O)OC(C)(C)C)C(=O)N3C2)c2cc(Cl)ccc12` [Compound 4075, tert-butyl (2R,6S,7R,9R,13aS,14aR,16aS,Z)-2-(7-chloro-4-ethoxyisoquinolin-1-yloxy)-7,9-dimethyl-14a-(1-methylcyclopropylsulfonylcarbamoyl)-5,16-dioxo-1,2,3,5,6,7,8,9,10,11,13a,14,14a,15,16,16a-hexadecahydrocyclopropa[e]pyrrolo[1,2-a][1,4]diazacyclopentadecin-6-ylcarbamate], the EC50 in assay [1] and in assay [2] was under 5.46 nM throughout.

Turning to `CCOc1cnc(O[C@@H]2C[C@H]3C(=O)N[C@]4(C(=O)NS(=O)(=O)C5(C)CC5)C[C@H]4/C=C\CC[C@@H](C)C[C@@H](C)[C@H](NC(=O)OC(C)(C)C(F)(F)F)C(=O)N3C2)c2cc(Cl)ccc12` [Compound 4076], the EC50 in assay [1] (GETYPE1A) and in assay [2] (GETYPE1B) was under 5.46 nM in each case.

Take `CCC1(S(=O)(=O)NC(=O)[C@@]23C[C@H]2/C=C\CC[C@@H](C)C[C@@H](C)[C@H](NC(=O)OC(C)(C)C(F)(F)F)C(=O)N2C[C@H](Oc4nccc5cc(OC)ccc45)C[C@H]2C(=O)N3)CC1` [Compound 4077]: the EC50 in assay [1] (GETYPE1A) and in assay [2] (GETYPE1B) was under 5.46 nM throughout.

Regarding `COc1ccc2c(O[C@@H]3C[C@H]4C(=O)N[C@]5(C(=O)NS(=O)(=O)C6(C)CC6)C[C@H]5/C=C\CC[C@@H](C)C[C@@H](C)[C@H](NC(=O)OC(C)(C)C)C(=O)N4C3)nc(-c3ccc(C(C)(C)C)cc3)cc2c1` [Compound 4078, tert-butyl (2R,6S,7R,9R,13aS,14aR,16aS,Z)-2-(3-(4-tert-butylphenyl)-6-methoxyisoquinolin-1-yloxy)-7,9-dimethyl-14a-(1-methylcyclopropylsulfonylcarbamoyl)-5,16-dioxo-1,2,3,5,6,7,8,9,10,11,13a,14,14a,15,16,16a-hexadecahydrocyclopropa[e]pyrrolo[1,2-a][1,4]diazacyclopentadecin-6-ylcarbamate], the EC50 in assay [1] and in assay [2] was 4.82 to 103 nM each time.

Consider `COc1ccc2c(O[C@@H]3C[C@H]4C(=O)N[C@]5(C(=O)NS(=O)(=O)C6(C)CC6)C[C@H]5/C=C\CC[C@@H](C)C[C@@H](C)[C@H](NC(=O)OC(C)(C)C(F)(F)F)C(=O)N4C3)nc(-c3ccc(C(C)(C)C)cc3)cc2c1` [Compound 4079], for which the EC50 in assay [1] (GETYPE1A) and in assay [2] (GETYPE1B) was 4.82 to 103 nM throughout.

Consider `COc1ccc2c(O[C@@H]3C[C@H]4C(=O)N[C@]5(C(=O)NS(=O)(=O)C6(C)CC6)C[C@H]5/C=C\CC[C@@H](C)C[C@@H](C)[C@H](NC(=O)OC(C)(C)C)C(=O)N4C3)ncc(OC)c2c1` [Compound 4080, tert-butyl (2R,6S,7R,9R,13aS,14aR,16aS,Z)-2-(4,6-dimethoxyisoquinolin-1-yloxy)-7,9-dimethyl-14a-(1-methylcyclopropylsulfonylcarbamoyl)-5,16-dioxo-1,2,3,5,6,7,8,9,10,11,13a,14,14a,15,16,16a-hexadecahydrocyclopropa[e]pyrrolo[1,2-a][1,4]diazacyclopentadecin-6-ylcarbamate], for which the concentration for a half-maximal effect (EC50) in assay [1] and in assay [2] was under 5.46 nM in each case.

Regarding `COc1ccc2c(O[C@@H]3C[C@H]4C(=O)N[C@]5(C(=O)NS(=O)(=O)C6(C)CC6)C[C@H]5/C=C\CC[C@@H](C)C[C@@H](C)[C@H](NC(=O)OC(C)(C)C(F)(F)F)C(=O)N4C3)ncc(OC)c2c1` [Compound 4081], the half-maximal effective concentration (EC50) in assay [1] (GETYPE1A) and in assay [2] (GETYPE1B) was under 5.46 nM throughout.

`COc1cnc(O[C@@H]2C[C@H]3C(=O)N[C@]4(C(=O)NS(=O)(=O)C5(CF)CC5)C[C@H]4/C=C\CC[C@@H](C)C[C@@H](C)[C@H](NC(=O)OC(C)(C)C)C(=O)N3C2)c2cc(F)ccc12` [Compound 4082, tert-butyl (2R,6S,7R,9R,13aS,14aR,16aS,Z)-2-(7-fluoro-4-methoxyisoquinolin-1-yloxy)-14a-(1-(fluoromethyl)cyclopropylsulfonylcarbamoyl)-7,9-dimethyl-5,16-dioxo-1,2,3,5,6,7,8,9,10,11,13a,14,14a,15,16,16a-hexadecahydrocyclopropa[e]pyrrolo[1,2-a][1,4]diazacyclopentadecin-6-ylcarbamate]: the half-maximal effective concentration (EC50) in assay [1] and in assay [2] was under 5.46 nM throughout.

On to `COc1cnc(O[C@@H]2C[C@H]3C(=O)N[C@]4(C(=O)NS(=O)(=O)C5(CF)CC5)C[C@H]4/C=C\CC[C@@H](C)C[C@@H](C)[C@H](NC(=O)OC(C)(C)C(F)(F)F)C(=O)N3C2)c2cc(F)ccc12` [Compound 4083], for which the concentration giving a half-maximal response (EC50) in assay [1] (GETYPE1A) and in assay [2] (GETYPE1B) was under 5.46 nM in each case.

Turning to `COc1cc2c(OC)cnc(O[C@@H]3C[C@H]4C(=O)N[C@]5(C(=O)NS(=O)(=O)C6(CF)CC6)C[C@H]5/C=C\CC[C@@H](C)C[C@@H](C)[C@H](NC(=O)OC(C)(C)C)C(=O)N4C3)c2cc1F` [Compound 4084, tert-butyl (2R,6S,7R,9R,13aS,14aR,16aS,Z)-2-(7-fluoro-4,6-dimethoxyisoquinolin-1-yloxy)-14a-(1-(fluoromethyl)cyclopropylsulfonylcarbamoyl)-7,9-dimethyl-5,16-dioxo-1,2,3,5,6,7,8,9,10,11,13a,14,14a,15,16,16a-hexadecahydrocyclopropa[e]pyrrolo[1,2-a][1,4]diazacyclopentadecin-6-ylcarbamate], the concentration giving a half-maximal response (EC50) in assay [1] and in assay [2] was under 5.46 nM in each case.

As to `COc1ccc2nc(O[C@@H]3C[C@H]4C(=O)N[C@]5(C(=O)NS(=O)(=O)C6(C)CC6)C[C@H]5/C=C\CC[C@@H](C)C[C@@H](C)[C@H](NC(=O)OC(C)(C)C)C(=O)N4C3)cnc2c1` [Compound 4085, tert-butyl (2R,6S,7R,9R,13aS,14aR,16aS,Z)-2-(6-methoxyquinoxalin-2-yloxy)-7,9-dimethyl-14a-(1-methylcyclopropylsulfonylcarbamoyl)-5,16-dioxo-1,2,3,5,6,7,8,9,10,11,13a,14,14a,15,16,16a-hexadecahydrocyclopropa[e]pyrrolo[1,2-a][1,4]diazacyclopentadecin-6-ylcarbamate], the EC50 is 4.82 to 103 nM in assay [1] and under 5.46 nM in assay [2].

`COc1ccc2ncc(O[C@@H]3C[C@H]4C(=O)N[C@]5(C(=O)NS(=O)(=O)C6(C)CC6)C[C@H]5/C=C\CC[C@@H](C)C[C@@H](C)[C@H](NC(=O)OC(C)(C)C)C(=O)N4C3)nc2c1` [Compound 4086, tert-butyl (2R,6S,7R,9R,13aS,14aR,16aS,Z)-2-(7-methoxyquinoxalin-2-yloxy)-7,9-dimethyl-14a-(1-methylcyclopropylsulfonylcarbamoyl)-5,16-dioxo-1,2,3,5,6,7,8,9,10,11,13a,14,14a,15,16,16a-hexadecahydrocyclopropa[e]pyrrolo[1,2-a][1,4]diazacyclopentadecin-6-ylcarbamate]: the EC50 in assay [1] and in assay [2] was under 5.46 nM each time.
